Reference: patent US20110296540A1, “ASSAY FOR SCREENING ANTIDEPRESSANTS” (priority 2008, published 2011)
Like-named read-outs stand apart in the source and are kept apart here.

Columns and labels:
[1] = target: T1, 5-HT1A autoreceptors (Mus musculus, UniProt Q64264); test: Whole cell recordings in the dorsal raphe, response to 5-HT1A agonist; assay type: cell-based; design: endogenous in cells; host or cells: Serotonergic neurons of the raphe nuclei in mice homozygous for tetO-1A with one copy of Pet-tTS; conditions: 1A-High mice vs. 1A-Low mice; 100 nM
T1 sequence (Q64264 1-421): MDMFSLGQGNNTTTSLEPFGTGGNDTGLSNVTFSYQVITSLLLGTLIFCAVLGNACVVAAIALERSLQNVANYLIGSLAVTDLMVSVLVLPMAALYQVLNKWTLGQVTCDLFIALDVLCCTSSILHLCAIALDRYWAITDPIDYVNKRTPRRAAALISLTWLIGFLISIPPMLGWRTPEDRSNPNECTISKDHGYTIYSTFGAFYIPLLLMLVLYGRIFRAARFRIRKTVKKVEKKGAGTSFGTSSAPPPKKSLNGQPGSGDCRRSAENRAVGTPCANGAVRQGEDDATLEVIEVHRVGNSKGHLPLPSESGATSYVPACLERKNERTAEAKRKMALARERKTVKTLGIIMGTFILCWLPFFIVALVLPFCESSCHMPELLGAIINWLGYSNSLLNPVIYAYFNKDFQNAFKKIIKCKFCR
Excerpt: Downward deflections reflect spontaneous synaptic activity.
Much of this difference is accounted for by a smaller proportion of serotonergic neurons responding to the agonist challenge in the 1A-Low mice.

[2] = target: T1, 5-HT1A autoreceptors
Description: (A) 8-OH DPAT-induced hypothermia in 1A-High and 1A-Low mice. Following establishment of baseline body temperature, animals received IP injections of 0.1 mg/kg 8-OHDAPT, 0.5 mg/kg 8-OH DPAT, or saline (N=5/dose/group). Values are expressed as core temperature change from the last recorded baseline temperature.

[3] = tested on: C57BL/6Ntac mice; test: Open Field paradigm, chronic corticosterone model; assay type: in vivo; conditions: 3-week antidepressant treatment in corticosterone-treated mice; imipramine 40, fluoxetine 18 mg/kg/day
Excerpt: The procedure described previously was used (Dulawa et al., 2004). Motor activity was quantified in four Plexiglas open field boxes 43 times 43 cm2 (MED Associates, Georgia, Vt.). Two sets of 16 pulse-modulated infrared photobeams were placed on opposite walls 2.5-cm apart to record x-y ambulatory movements. Activity chambers were computer interfaced for data sampling at 100-ms resolution. The computer defined grid lines that divided each Open Field into center and surround regions, with each of four lines being 11 cm from each wall. Dependent measures in the center were the total time and the number of entries over a 30-min period of test. The whole session was also divided in […] to analyze the time spent in the center every 5 min. The overall motor activity was quantified as the total distance traveled (cm) or distance traveled in the center divided by total distance traveled.
Mice were anesthetized with ketamine and xylazine (100 mg/ml ketamine; 20 mg/ml xylazine), placed in a stereotaxic frame and exposed to cranial irradiation using a Siemens Stabilopan X-ray system operated at 300 kVp and 20 mA. Animals were protected with a lead shield that covered the entire body, but left unshielded a 3.22×11-mm treatment field above the hippocampus (interaural 3.00 to 0.00) exposed to X-Ray. Dosimetry was done using a Capintec Model PR06G electrometer ionization chamber and Kodak Readypack Radiographic XV films. The corrected dose rate was approximately 1.8 Gy per min at a source to skin distance of 30 cm. The procedure lasted 2 min and 47 sec, delivering a total of 5 Gy. Three 5 Gy doses were delivered on days 1, 4 and 8.

[4] = tested on: HPA axis; test: Stress evoked increase of corticosterone levels; assay type: in vivo, mice; conditions: acute swim stress; baseline conditions and after chronic corticosterone treatment
Description: Adult male C57BL/6Ntac mice were exposed to a 6 minutes swim stress. […]. Blood was collected into ice-chilled tubes containing EDTA and centrifuged at 3000 rpm for 10 min (at 4° C.) for separation of plasma, and plasma samples were stored at −80° C. until assayed. […]; Diagnostic Systems Laboratories, Inc. Webster, Tex.; sensitivity limit: 20 ng/ml). ACTH was measured directly in plasma using an ImmuChem™ Double Antibody hACTH 1251 RIA kit (No. 07-106101; MP Biomedicals, LLC, Orangeburg, N.Y.) with a sensitivity limit ˜5.7 pg/ml. All samples were measured simultaneously to reduce inter-assay variability.

[5] = tested on: C57BL/6Ntac mice; test: Forced Swim Test, chronic corticosterone model; assay type: in vivo; conditions: for immobility duration (FST): mean±SEM
[6] = tested on: tet0-1A homozygous mice that do not carry the tTS transgene; test: Control for the effects of doxycycline on baseline anxiety and depression-related behavior; assay type: in vivo; conditions: transgene-negative littermates
Excerpt: FIGS. 27A-C Control for the effects of doxycycline on baseline anxiety and depression-related behavior.
(C) Likewise, no differences were detected in the forced swim test on either the first (i) or second (ii) day of testing (N=47).
This was accomplished using a novel bigenic system consisting of two parts: 1) insertion of the tet0 DNA regulatory element into the promoter region of the Htr1a gene, to create the tet0-1A allele and 2) raphe-specific expression of the tetracycline-dependent transcriptional suppressor (tTS) under the control of the previously characterized 540Z Pet-1 promoter fragment (P. M. Fisher et al., Nat Neurosci 9, 1362 (Nov., 2006)). […] Removal of doxycycline for four weeks beginning at postnatal day (PND) 50 creates an adult population of animals with lower expression of 5-HT1A autoreceptors (1A-Low) (FIG. 21b). Four weeks after doxycycline removal, suppression has reached maximal levels (data not shown).

For NCCc1c[nH]c2ccc(C(N)=O)cc12 [5-CT], which “average current elicited by agonist challenge in serotonergic neurons” value [1] is on record?
Its value is “significantly higher”.

Which “hypothermic response to 5-HT1A agonist challenge” value ([2]; 1A-High mice, 0.1 and 0.5 mg/kg IP) does the source give for CCCN(CCC)C1CCc2cccc(O)c2C1 (stereo not shown) [8-OH DPAT] here?
The value was “robust and dose-dependent hypothermic response”.

And the “hypothermic response to 8-OH DPAT” value ([2]; 1A-High vehicle control mice, 0.5 mg/kg i.p.)?
The value was “robust hypothermic response”.

And the “hypothermic response to 5-HT1A agonist challenge” value ([2]; 1A-Low mice, detected only at the highest dose)?
Its value is “attenuated response”.

With CN(C)CCCN1c2ccccc2CCc2ccccc21 [imipramine] as the compound, how does the “corticosterone-induced anxiety phenotype in the Open Field (time and entries in the center)” value [3] read?
Its value is “reversed”.

And the “stress induced corticosterone levels” value [4]?
The value was “had no effect”.

And the “immobility duration (FST)” value ([5]; corticosterone treated animals, alone or with antidepressant)?
Its value is 296.8 s.

And the “immobility duration (FST)” value ([5]; non-corticosterone treated animals)?
Its value is 298.5 s.

And the “duration of immobility (FST), effect” value ([5]; two-way ANOVA, corticosterone 7 weeks, antidepressants last 3 weeks)?
Its value is “decreased”.

For C[C@H]1c2cccc(O)c2C(=O)C2=C(O)[C@]3(O)C(=O)C(C(N)=O)=C(O)[C@@H](N(C)C)[C@@H]3[C@@H](O)[C@@H]21 [doxycycline], which “effect on behavioral measures (Open Field, Light/Dark choice test, forced swim test)” value [6] is on record?
Its value is “no effect”.
